From patent publication US20240368566A1, “PYK2-DERIVED PEPTIDES FOR INHIBITING INVADOPODIA-MEDIATED CANCER METASTASIS” (BAR-ILAN UNIVERSITY, priority 2023, published 2024)
“Also recorded” adds a separate entry of the source.

How the values were obtained:
[1] = system: MDA-MB-231 cells; assay: 2D single-cell random migration assay; type: cell-based, human; settings: all concentrations; 12 hours; compared to control peptide; data not shown
Protocol: The 2D single-cell random migration assay was performed as previously described in Genna et al. Pyk2 and FAK differentially regulate invadopodia formation and function in breast cancer cells. J Cell Biol 2018; 217: 375-395. In brief, 6-well microtiter plates were coated with 10 μg/ml fibronectin and blocked with 1% denatured BSA. Peptide pre-treated cells were plated at 20,000 cells/well in DMEM/10% FBS containing peptides and allowed to adhere for 12-16 h. Plates were placed in a 37° C. heated chamber, and images were collected using the IncuCyte® Zoom platform (Essen Bioscience, Ann Arbor, MI, USA; 20×, NA 0.60, air objective). Phase images were collected every one hour for a total of 12 h using the IncuCyte® acquisition software. Trajectory plots, accumulated distance (total cell path length), Euclidean distance (the shortest distance between the starting point and endpoint of migration), and velocity were calculated using the chemotaxis and migration tool (ibidi GMBH, Grafelfing, Germany).

[2] = system: MDA-MB-231 cells; assay: Invadopodium precursor formation assay; type: cell-based, human; settings: 4 h, 0.1, 1 or 5 μM peptide
Protocol: The invadopodium precursor formation assay was performed as described in Genna et al., 2018 (supra). Briefly, gelatin was conjugated to Alexa 405 dye (Thermo Fisher Scientific). MatTek dishes were treated with 1 N HCl and coated with 50 μg/ml poly-L-lysine. A 0.2% gelatin solution was prepared in PBS, and a 1:20 mixture of Alexa 405-labeled gelatin/unlabeled gelatin was warmed to 37° C. before addition to the poly-L-lysine coated plates. Gelatin was cross-linked with 0.01% glutaraldehyde followed by quenching with 5 mg/ml sodium borohydride. 125,000 MDA-MB-231 cells were plated on Alexa 405-labeled gelatin plates in the presence of 0.1, 1, or 5 μM of Pyk2-PRR peptides or scrambled control for 4 h. At the end of incubation, cells were fixed in 3.7% paraformaldehyde, permeabilized with 0.1% Triton X-100, blocked with 1% FBS, 1% BSA in PBS, and labeled with anti-Tks5 and anti-cortactin. Images were acquired using an inverted fluorescent microscope (Leica AF6000; 63×, NA 1.4, oil objective, Leica LAS AF acquisition software) (Wetzlar, Germany) equipped with an ORCA-Flash 4.0 V2 digital CMOS camera (Hamamatsu Photonics, Shizuoka, Japan).

[3] = system: interaction between Pyk2 and cortactin in invadopodia; assay: Acceptor photobleaching FRET assay; type: cell-based, human; settings: 0.1, 1, 5 μM peptide; mature matrix-degrading invadopodia
Protocol: Acceptor photobleaching experiments were performed as described in Genna et al., 2018 (supra). In brief, cortactin-TagRFP MDA-MB-231 cells were plated on Alexa 405 gelatin in a medium containing Pyk2-PRR or scrambled control peptides at 0.1, 1, and 5 μM concentration, fixed, and immunostained with pY402-Pyk2/Alexa Fluor 488-goat anti-rabbit (donor) and cortactin/Alexa Fluor 555-goat anti-mouse (acceptor). As a control, cells were stained with Tks5/Alexa Fluor 488-goat anti-rabbit (donor) and cortactin/Alexa Fluor 555-goat anti-mouse (acceptor). Co-localization of cortactin with degradation holes in Alexa 405-labeled gelatin was used to identify mature degrading invadopodia. For all FRET experiments, cells were imaged in PBS at room temperature on a laser-scanning inverted confocal microscope (Zeiss LSM780; 60×, NA 1.4, oil objective). A region of interest surrounding invadopodia was bleached using 100% 561-nm laser power (acceptor channel), and images were acquired in both the 488 nm and the 561 nm channels before and after bleaching. FRET efficiency was calculated as the E=1−(donor pre/donor post) in background-subtracted images and was corrected for fluctuations in laser power and donor bleaching in ImageJ.

[4] = system: 4T1 cells; assay: Spontaneous lung metastasis clonogenic assay in 4T1 xenograft mouse model; type: in vivo, BALB/c female mice; settings: 10 mg/kg once a day for eight days, intraperitoneal injection, HIV-TAT fused peptide; versus scrambled control
Protocol: All experimental procedures were conducted following the Federation of Laboratory Animal Science Association (FELSA) and were approved by the Bar-Ilan University animal use and care committee. Mouse xenograft tumors were generated by injecting 10^6 4T1 cells resuspended in 20% collagen I (BD Biosciences, Franklin Lakes, NJ, USA) in PBS into the lower-left mammary gland of 8-week-old BALB/c female mice. […] 4T1 cells have intrinsic resistance to 6-thioguanine, which enables precise quantification of metastatic cells, even when they are disseminated at sub-microscopic levels at distant organs, upon excision and digestion of selected organs. The clonogenic assay is based on a principle by which one colony represents one metastatic cell. Briefly, spontaneous lung metastasis was measured in BALB/c mice bearing orthotopic 4T1 tumors of equal size (1-1.2 cm in diameter). Lungs were excised and minced and plated in RPMI/10% FBS in the presence of 6-thioguanine to select for tumor cells only. Cells were plated in a 5% CO2 incubator at 37° C. for 14 days to form 4T1 colonies. On day 14 after plating, the medium was removed from dishes, and colonies were fixed in 4% paraformaldehyde for one hour at room temperature. Colonies were then stained in 2% crystal violet solution and thoroughly washed with PBS. Plates were allowed to air dry, and colonies in each plate were quantified. […]

[5] = system: MDA-MB-231 cells; assay: ECM degradation assay; type: cell-based, human; settings: 24 h on fluorescent fibronectin/gelatin matrix; compared to control peptide
Protocol: The in vitro matrix degradation assay was performed as described in Genna et al., 2018 (supra). Briefly, MatTek dishes were treated with 2.5% gelatin/2.5% sucrose, cross-linked with 0.5% glutaraldehyde, treated with 10 μg/ml of fluorescently labeled fibronectin (Alexa 568; Invitrogen, Thermo Fischer Scientific), and then with 1 mg/ml NaBH4 in PBS. 125,000 cells were plated on the fibronectin/gelatin matrix in Pyk2-PRR or control peptides and allowed to degrade for 24 h. Cells were then fixed in 3.7% paraformaldehyde, and random fields were imaged using an inverted fluorescent microscope (Leica AF6000; 40×, NA 1.3, oil objective). ECM degradation was analyzed by quantifying the average degraded area in pixels per field using ImageJ.

SMILES: C[C@H](NC(=O)[C@@H](N)[C@@H](C)O)C(=O)N[C@@H](Cc1ccccc1)C(=O)N[C@@H](CCC(N)=O)C(=O)N[C@@H](CCC(=O)O)C(=O)N1CCC[C@H]1C(=O)N1CCC[C@H]1C(=O)N1CCC[C@H]1C(=O)N[C@@H](CCCCN)C(=O)N1CCC[C@H]1C(=O)N[C@@H](CO)C(=O)N[C@@H](CCCNC(=N)N)C(=O)N1CCC[C@H]1C(=O)N[C@@H](CCCCN)C(=O)N[C@@H](Cc1ccc(O)cc1)C(=O)N[C@@H](CCCNC(=N)N)C(=O)N1CCC[C@H]1C(=O)N1CCC[C@H]1C(=O)N1CCC[C@H]1C(=O)O [Pyk2-PRR2, TAFQEPPPKPSRPKYRPPP]
- 2D motility (accumulated and Euclidean distances, velocity) [1]: reduced 2D motility
- mature, matrix-degrading invadopodia ([2]; co-localization with degradation regions): significant decrease
- immature invadopodium precursors ([2]; cortactin and Tks5 co-localization): significant increase
- interaction between Pyk2 and cortactin in invadopodia (FRET) [3]: significantly inhibited
- lung metastases (6-thioguanine-resistant colonies) [4]: significantly fewer lung metastases; also recorded: can suppress in vivo breast tumor metastasis; also recorded: significantly inhibited lung metastasis
- matrix degradation (degradation area) [5]: significant decrease
